Test results taken from BindingDB's records for doi:10.1016/j.bioorg.2016.06.001 (Tehran University of Medical Sciences, 2016).

Key:
Details in all cases: pH 8
[1] = target: Carboxylic ester hydrolase (Equus caballus, UniProt Q9N1N9); assay: AChE and BChE Inhibition Assay
Protocol: (§1) In vitro AChEI activity was performed based on the modified Ellman's methodas previously reported by our group using a 96-well plate reader (BioTek ELx808). […] Each well contained 50 uL potassium phosphate buffer (KH2PO4/K2HPO4, 0.1 M, pH 8), 25 uL prepared sample as described above, 25 uL enzyme with final concentration of 0.22 U/mL in buffer. They were preincubated for 15 min at rt, and then 125 uL DTNB (3 mM in buffer) was added. […] The IC50 values were determined graphically from inhibition curves (log inhibitor concentration vs. percent of inhibition).

[2] = target: Acetylcholinesterase (Electrophorus electricus, UniProt O42275); assay: AChE and BChE Inhibition Assay
Protocol: as §1

[3] = AChE and BChE Inhibition Assay

Sequence of Acetylcholinesterase (O42275 whole entry): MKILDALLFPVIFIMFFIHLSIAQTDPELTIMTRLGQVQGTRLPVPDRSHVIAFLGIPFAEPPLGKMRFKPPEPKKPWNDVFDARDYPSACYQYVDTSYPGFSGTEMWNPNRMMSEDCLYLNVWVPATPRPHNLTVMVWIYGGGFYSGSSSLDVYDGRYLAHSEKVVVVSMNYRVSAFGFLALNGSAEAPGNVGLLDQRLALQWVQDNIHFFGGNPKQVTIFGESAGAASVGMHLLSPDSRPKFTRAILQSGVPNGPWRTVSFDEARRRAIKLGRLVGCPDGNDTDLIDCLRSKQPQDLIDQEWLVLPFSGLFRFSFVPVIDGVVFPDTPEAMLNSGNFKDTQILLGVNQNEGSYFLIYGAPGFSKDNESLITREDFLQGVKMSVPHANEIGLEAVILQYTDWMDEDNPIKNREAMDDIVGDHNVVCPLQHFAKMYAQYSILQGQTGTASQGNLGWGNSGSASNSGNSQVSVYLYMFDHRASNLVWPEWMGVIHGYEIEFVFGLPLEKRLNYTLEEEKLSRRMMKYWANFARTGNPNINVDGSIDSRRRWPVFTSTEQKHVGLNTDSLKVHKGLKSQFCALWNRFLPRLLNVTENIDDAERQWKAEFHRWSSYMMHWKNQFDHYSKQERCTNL
Sequence of Carboxylic ester hydrolase (Q9N1N9 whole entry): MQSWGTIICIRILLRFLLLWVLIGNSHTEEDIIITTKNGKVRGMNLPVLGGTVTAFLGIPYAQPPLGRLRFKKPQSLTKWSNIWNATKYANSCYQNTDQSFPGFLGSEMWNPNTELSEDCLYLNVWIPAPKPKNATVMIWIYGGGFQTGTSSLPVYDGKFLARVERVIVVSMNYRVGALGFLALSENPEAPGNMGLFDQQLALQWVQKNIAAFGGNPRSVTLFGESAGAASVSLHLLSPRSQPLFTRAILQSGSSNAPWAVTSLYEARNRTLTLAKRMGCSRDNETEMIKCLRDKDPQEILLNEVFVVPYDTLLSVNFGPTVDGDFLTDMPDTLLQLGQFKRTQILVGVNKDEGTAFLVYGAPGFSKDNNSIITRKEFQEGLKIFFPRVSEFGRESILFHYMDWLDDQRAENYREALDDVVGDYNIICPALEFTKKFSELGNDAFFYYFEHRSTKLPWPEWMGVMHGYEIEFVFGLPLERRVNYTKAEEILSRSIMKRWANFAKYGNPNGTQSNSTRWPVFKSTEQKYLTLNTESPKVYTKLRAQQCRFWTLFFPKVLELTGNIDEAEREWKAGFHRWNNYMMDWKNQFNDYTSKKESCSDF

SMILES	IC50 [1]	IC50 [2]	IC50 [3]
O=c1ccc2ccc(Oc3ccc(Nc4c5c(nc6cc(Cl)ccc46)CCCCC5)cc3)cc2o1 [7-(4-((3-Chloro-7,8,9,10-tetrahydro-6H-cyclohepta[b]quinolin-11-yl)amino)phenoxy)-2H-chromen-2-one (8n)]	> 100 µM	> 100 µM	–
Cc1cc(=O)oc2cc(Oc3ccc(Nc4c5c(nc6cc(Cl)ccc46)CCC5)cc3)ccc12 [7-(4-((6-Chloro-2,3-dihydro-1H-cyclopenta[b]quinolin-9-yl)amino)phenoxy)-4-methyl-2H-chromen-2-one (8e)]	> 100 µM	16.2 µM	7.99 µM
Cc1cc(=O)oc2cc(Oc3ccc(Nc4c5c(nc6ccccc46)CCC5)cc3)ccc12 [7-(4-((2,3-Dihydro-1H-cyclopenta[b]quinolin-9-yl)amino)phenoxy)-4-methyl-2H-chromen-2-one (8d)]	> 100 µM	45.3 µM	–
Cc1cc(=O)oc2cc(Oc3ccc(Nc4c5c(nc6cc(Cl)ccc46)CCCC5)cc3)ccc12 [7-(4-((6-Chloro-1,2,3,4-tetrahydroacridin-9-yl)amino)phenoxy)-4-methyl-2H-chromen-2-one (8k)]	31.2 µM	18 µM	–
O=c1ccc2ccc(Oc3ccc(Nc4c5c(nc6ccc(Cl)cc46)CCCC5)cc3)cc2o1 [7-(4-((7-Chloro-1,2,3,4-tetrahydroacridin-9-yl)amino)phenoxy)-2H-chromen-2-one (8i)]	> 100 µM	> 100 µM	–
Cc1cc(=O)oc2cc(Oc3ccc(Nc4c5c(nc6ccccc46)CCCC5)cc3)ccc12 [4-Methyl-7-(4-((1,2,3,4-tetrahydroacridin-9-yl)amino)phenoxy)-2H-chromen-2-one (8j)]	38.6 µM	22.1 µM	–
Cc1cc(=O)oc2cc(Oc3ccc(Nc4c5c(nc6ccc(Cl)cc46)CCC5)cc3)ccc12 [7-(4-((7-Chloro-2,3-dihydro-1H-cyclopenta[b]quinolin-9-yl)amino)phenoxy)-4-methyl-2H-chromen-2-one (8f)]	> 100 µM	36.7 µM	–
Cc1cc(=O)oc2cc(Oc3ccc(Nc4c5c(nc6ccc(Cl)cc46)CCCC5)cc3)ccc12 [7-(4-((7-Chloro-1,2,3,4-tetrahydroacridin-9-yl)amino)phenoxy)-4-methyl-2H-chromen-2-one (8l)]	> 100 µM	30.8 µM	–
O=c1ccc2ccc(Oc3ccc(Nc4c5c(nc6cc(Cl)ccc46)CCC5)cc3)cc2o1 [7-(4-((6-Chloro-2,3-dihydro-1H-cyclopenta[b]quinolin-9-yl)amino)phenoxy)-2H-chromen-2-one (8b)]	11.6 µM	> 100 µM	–
Cc1cc(=O)oc2cc(Oc3ccc(Nc4c5c(nc6ccccc46)CCCCC5)cc3)ccc12 [4-Methyl-7-(4-((7,8,9,10-tetrahydro-6H-cyclohepta[b]quinolin-11-yl)amino)phenoxy)-2H-chromen-2-one (8o)]	> 100 µM	64.4 µM	–
O=c1ccc2ccc(Oc3ccc(Nc4c5c(nc6ccccc46)CCCCC5)cc3)cc2o1 [7-(4-((7,8,9,10-Tetrahydro-6H-cyclohepta[b]quinolin-11-yl)amino)phenoxy)-2H-chromen-2-one (8m)]	> 100 µM	> 100 µM	–
O=c1ccc2ccc(Oc3ccc(Nc4c5c(nc6ccc(Cl)cc46)CCC5)cc3)cc2o1 [7-(4-((7-Chloro-2,3-dihydro-1H-cyclopenta[b]quinolin-9-yl)amino)phenoxy)-2H-chromen-2-one (8c)]	> 100 µM	38.5 µM	–
O=c1ccc2ccc(Oc3ccc(Nc4c5c(nc6cc(Cl)ccc46)CCCC5)cc3)cc2o1 [7-(4-((6-Chloro-1,2,3,4-tetrahydroacridin-9-yl)amino)phenoxy)-2H-chromen-2-one (8h)]	> 100 µM	> 100 µM	–
O=c1ccc2ccc(Oc3ccc(Nc4c5c(nc6ccccc46)CCC5)cc3)cc2o1 [7-(4-((2,3-Dihydro-1H-cyclopenta[b]quinolin-9-yl)amino)phenoxy)-2H-chromen-2-one (8a)]	> 100 µM	83.1 µM	–
Cc1cc(=O)oc2cc(Oc3ccc(Nc4c5c(nc6cc(Cl)ccc46)CCCCC5)cc3)ccc12 [7-(4-((3-Chloro-7,8,9,10-tetrahydro-6H-cyclohepta[b]quinolin-11-yl)amino)phenoxy)-4-methyl-2H-chromen-2-one (8p)]	> 100 µM	31.8 µM	–
O=c1ccc2ccc(Oc3ccc(Nc4c5c(nc6ccccc46)CCCC5)cc3)cc2o1 [7-(4-((1,2,3,4-Tetrahydroacridin-9-yl)amino)phenoxy)-2H-chromen-2-one (8g)]	28.7 µM	19.1 µM	–
Cc1cc(=O)oc2cc(Oc3ccc(Nc4c5c(nc6ccc(Cl)cc46)CCCCC5)cc3)ccc12 [7-(4-(2-Chloro-7,8,9,10-tetrahydro-6H-cyclohepta[b]quinolin-11-ylamino)phenoxy)-4-methyl-2H-chromen-2-one (8q)]	> 100 µM	54.1 µM	–
